Assay results published in patent US10144730B2, “Inhibitors of c-Jun-N-terminal kinase (JNK)” (Dana-Farber Cancer Institute, Inc., priority 2011, dated 2018).

How the values were obtained:
Format in all cases: cell-based
phosphorylation of Erk = test: High-throughput microscopy, phosphorylation of Erk; conditions: Homo sapiens, A-375, A375 cells, anisomycin stimulation, read-out: Cellular EC50 pErk
Experimental: (§1) A375 cells were stimulated with anisomycin (FIGS. 14A and 14C to 14F), IGF-1 (FIG. 14B), IL-6 (FIG. 14G), and TNF-α (FIG. 14H) for sixty minutes. The output of multiple signaling pathways was measured using high throughput microscopy at multiple concentrations of four JNK inhibitors and a control compound specific to each pathway DMSO (FIG. 14A), MK2206 (allosteric Akt inhibitor, Haoyuan Chemexpress Co., Limited. Hirai, et al., 2010) (FIG. 14B), PD0325901 (allosteric Mek inhibitor, Haoyuan Chemexpress Co., Limited. Barrett, et al., 2008) (FIGS. 14C and 14D), SB239063 (ATP-competitive p38 inhibitor, Haoyuan Chemexpress Co., Limited. Underwood et al., 2000) (FIGS. 14E and 14F), KIN001-040 (ATP-competitive JAK1,2,3 inhibitor, Haoyuan Chemexpress Co., Limited. Thompson et al., 2002) (FIG. 14G), and KIN001-208 (IKK inhibitor VIII, Haoyuan Chemexpress Co., Limited., Murata, et al., 2004) (FIG. 14H).
(§2) Cells were plated at 7500 cells/well in 96-well microscopy plates (Corning) in recommended media for 24 hours, and then starved in media lacking serum for 16 hours. Cells were pre-treated for 180 minutes with 10-fold stock solutions of JNK inhibitors and for 10 min with control compounds MK2206, PD0325901, SB239063, KIN040, and KIN208 and treated with 10-fold stock solutions of IGF-1, IL-6, TNF-α (all PeproTech), or anisomycin for 60 minutes. Cells were fixed in 2% paraformaldehyde for 10 min at room temperature and washed with PBS-T (Phosphate Buffered Saline, 0.1% Tween 20). Cells were permeabilized in methanol for 10 min at room temperature, washed with PBS-T, and blocked in Odyssey Blocking Buffer (LI-COR Biosciences) for 1 hour at room temperature. Cells were incubated overnight at 4° C. with antibody specific for Erk1/2(pT202/pY204), Akt(pS473), c-Jun(pS73), pP38(T180/Y182) and pSTAT3(Y705) (Cell Signaling Technology), pRSK1(S380) and pMSK1(S376) (Epitomics), and NF-κB (Santa Cruz Biotechnology) diluted 1:400 in Odyssey Blocking Buffer. Cells were washed three times in PBS-T and incubated with rabbit-specific secondary antibody labeled with Alexa Fluor 647 (Invitrogen) diluted 1:2000 in Odyssey Blocking Buffer. Cells were washed once in PBS-T and once in PBS and incubated in 250 ng/ml Hoechst 33342 (Invitrogen) and 1:1000 Whole Cell Stain (blue; Thermo Scientific) solution. Cells were washed twice with PBS and imaged in an imageWoRx high-throughput microscope (Applied Precision). Data were plotted using DataPflex. […]

c-Jun phosphorylation = test: LanthaScreen TR-FRET cell assay for c-Jun phosphorylation in HeLa cells; conditions: Homo sapiens; Hela cells, TNF-α stimulation; read-out: p-c-Jun EC50 (nM) Hela
Experimental: Phosphorylation was determined by measuring the time resolved FRET (TR-FRET) between a terbium labeled phospho-c-Jun specific antibody and GFP. The cells were plated in white tissue culture treated 384 well plates at a density of 10,000 cell per well in 32 μL assay medium (Opti-MEM®, supplemented with 0.5% charcoal/dextran-treated FBS, 100 U/ml penicillin and 100 μg/ml streptomycin, 0.1 mM nonessential amino acids, 1 mM sodium pyruvate, 25 mM Hepes, pH 7.3, and lacking phenol red). After overnight incubation, cells were pretreated for 90 minutes with compound (at indicated concentration) diluted in 4 μL assay buffer followed by 30 min of stimulation with 5 ng/ml of TNF-α in 4 μL assay buffer (final assay volume was 40 μl). The medium was then removed by aspiration, and the cells were lysed by adding 20 μl of lysis buffer (20 mM Tris-HCl, pH 7.6, 5 mM EDTA, 1% Nonidet P-40 substitute, 5 mM NaF, 150 mM NaCl, and 1:100 protease and phosphatase inhibitor mix, SIGMA P8340 and P2850, respectively). The lysis buffer included 2 nM of the terbium-labeled anti-c-Jun (pSer73) detection antibodies (Life Technologies). After allowing the assay to equilibrate for 60 minutes at room temperature, TR-FRET emission ratios were determined on a BMG Pherastar fluorescence plate reader (BMG Labtech, Cary, N.C.) using the following parameters: excitation at 340 nm; emission at 520 nm and 490 nm; 100 μs lag time; 200 μs integration time; and emission ratio=Em520/Em490. All data were analyzed and plotted using Graphpad Prism 4.
In parallel with biochemical evaluation, the ability of the compounds to inhibit JNK activity in cells was investigated using two independent assays formats. This is a critical issue because there are several reported JNK inhibitors with nanomolar biochemical potency that translate into micromolar cellular inhibitors. The most well characterized direct phosphorylation substrate of JNK is the transcription factor c-Jun.

phosphorylation of p38 = test: High-throughput microscopy, phosphorylation of p38; conditions: Homo sapiens, A-375, A375 cells, anisomycin stimulation, read-out: Cellular EC50 pP38
Experimental: as §1, §2

phosphorylation of RSK = test: High-throughput microscopy, phosphorylation of RSK; conditions: Homo sapiens, A-375, A375 cells, anisomycin stimulation, read-out: Cellular EC50 pRSK
Experimental: as §1, §2

phosphorylation of Akt = test: High-throughput microscopy, phosphorylation of Akt; conditions: Homo sapiens, A-375, A375 cells, IGF-1 stimulation, read-out: Cellular EC50 pAkt
Experimental: as §1, §2

EC50 (phosphorylation of Erk) [µM] | EC50 (c-Jun phosphorylation) [nM] | EC50 (phosphorylation of p38) [µM] | EC50 (phosphorylation of RSK) [µM] | EC50 (phosphorylation of Akt) [µM] | Structure (SMILES)
> 10 | 486 | > 10 | > 10 | > 10 | Cc1cc(NC(=O)c2cccc(NC(=O)/C=C/CN(C)C)c2)ccc1Nc1nccc(-c2cccnc2)n1 [JNK-IN-8]
> 10 | 605 | > 10 | > 10 | > 10 | CN(C)C/C=C/C(=O)Nc1cccc(C(=O)Nc2ccc(Nc3nccc(/C(C#N)=C4\Nc5ccccc5S4)n3)cc2)c1 [JNK-IN-12]
